The source of these data is patent US8143243B2, “Compounds for the treatment of hepatitis C” (Bristol-Myers Squibb Company, priority 2007, dated 2012).

For the test, the target named is T1, HCV NS5B (Hepatitis C virus genotype 1b, UniProt Q9WMX2).
T1 construct: The protein was expressed with an 18 amino acid C-terminal truncation to enhance the solubility; made in house; host or cells: E. coli BL21 (DE3)
The test is described as follows: HCV NS5B RdRp enzyme assay (standard / modified). In kind it is biochemical. How it is done:
HCV NS5B RdRp cloning, expression, and purification. The cDNA encoding the NS5B protein of HCV, genotype 1b, was cloned into the pET21a expression vector. The protein was expressed with an 18 amino acid C-terminal truncation to enhance the solubility. The E. coli competent cell line BL21 (DE3) was used for expression of the protein. Cultures were grown at 37° C. for ˜4 hours until the cultures reached an optical density of 2.0 at 600 nm. The cultures were cooled to 20° C. and induced with 1 mM IPTG. Fresh ampicillin was added to a final concentration of 50 μg/ml and the cells were grown overnight at 20° C.
Cell pellets (3 L) were lysed for purification to yield 15-24 mgs of purified NS5B. The lysis buffer consisted of 20 mM Tris-HCl, pH 7.4, 500 mM NaCl, 0.5% triton X-100, 1 mM DTT, 1 mM EDTA, 20% glycerol, 0.5 mg/ml lysozyme, 10 mM MgCl2, 15 ug/ml deoxyribonuclease I, and Complete TM protease inhibitor tablets (Roche). After addition of the lysis buffer, frozen cell pellets were resuspended using a tissue homogenizer. To reduce the viscosity of the sample, aliquots of the lysate were sonicated on ice using a microtip attached to a Branson sonicator. The sonicated lysate was centrifuged at 100,000×g for 1 hr at 4° C. and filtered through a 0.2 μm filter unit (Corning).
The protein was purified using three sequential chromatography steps: Heparin sepharose CL-6B, polyU sepharose 4B, and Hitrap SP sepharose (Pharmacia). The chromatography buffers were identical to the lysis buffer but contained no lysozyme, deoxyribonuclease I, MgCl2 or protease inhibitor and the NaCl concentration of the buffer was adjusted according to the requirements for charging the protein onto the column. Each column was eluted with a NaCl gradient which varied in length from 5-50 column volumes depending on the column type. After the final chromatography step, the resulting purity of the enzyme is >90% based on SDS-PAGE analysis. The enzyme was aliquoted and stored at −80° C.
Standard HCV NS5B RdRp enzyme assay. HCV RdRp genotype 1b assays were run in a final volume of 60 μl in 96 well plates (Costar 3912). The assay buffer is composed of 20 mM Hepes, pH 7.5, 2.5 mM KCl, 2.5 mM MgCl2, 1 mM DTT, 1.6 U RNAse inhibitor (Promega N2515), 0.1 mg/ml BSA (Promega R3961), and 2% glycerol. All compounds were serially diluted (3-fold) in DMSO and diluted further in water such that the final concentration of DMSO in the assay was 2%. HCV RdRp genotype 1b enzyme was used at a final concentration of 28 nM. A polyA template was used at 6 nM, and a biotinylated oligo-dT12 primer was used at 180 nM final concentration. Template was obtained commercially (Amersham 27-4110). Biotinylated primer was prepared by Sigma Genosys. 3H-UTP was used at 0.6 μCi (0.29 μM total UTP). Reactions were initiated by the addition of enzyme, incubated at 30° C. for 60 min, and stopped by adding 25 μl of 50 mM EDTA containing SPA beads (4 μg/μl, Amersham RPNQ 0007). Plates were read on a Packard Top Count NXT after >1 hr incubation at room temperature.
Modified HCV NS5B RdRp enzyme assay. A modified enzyme assay was performed essentially as described for the standard enzyme assay except for the following: The biotinylated oligo dT12 primer was precaptured on streptavidin-coated SPA beads by mixing primer and beads in assay buffer and incubating at room temperature for one hour. Unbound primer was removed after centrifugation. The primer-bound beads were resuspended in 20 mM Hepes buffer, pH 7.5 and used in the assay at final concentrations of 20 nM primer and 0.67 μg/μl beads. Order of addition in the assay: enzyme (14 nM) was added to diluted compound followed by the addition of a mixture of template (0.2 nM), 3H-UTP (0.6 μCi, 0.29 μM), and primer-bound beads, to initiate the reaction; concentrations given are final. Reactions were allowed to proceed for 4 hours at 30° C.
IC50 values for compounds were determined using seven different [I]. […]

Setting [1] is: HCV RdRp genotype 1b enzyme, read-out: IC50.

Where two headings read alike, the source gives them in different places.

T1 sequence (Q9WMX2 2420-2992): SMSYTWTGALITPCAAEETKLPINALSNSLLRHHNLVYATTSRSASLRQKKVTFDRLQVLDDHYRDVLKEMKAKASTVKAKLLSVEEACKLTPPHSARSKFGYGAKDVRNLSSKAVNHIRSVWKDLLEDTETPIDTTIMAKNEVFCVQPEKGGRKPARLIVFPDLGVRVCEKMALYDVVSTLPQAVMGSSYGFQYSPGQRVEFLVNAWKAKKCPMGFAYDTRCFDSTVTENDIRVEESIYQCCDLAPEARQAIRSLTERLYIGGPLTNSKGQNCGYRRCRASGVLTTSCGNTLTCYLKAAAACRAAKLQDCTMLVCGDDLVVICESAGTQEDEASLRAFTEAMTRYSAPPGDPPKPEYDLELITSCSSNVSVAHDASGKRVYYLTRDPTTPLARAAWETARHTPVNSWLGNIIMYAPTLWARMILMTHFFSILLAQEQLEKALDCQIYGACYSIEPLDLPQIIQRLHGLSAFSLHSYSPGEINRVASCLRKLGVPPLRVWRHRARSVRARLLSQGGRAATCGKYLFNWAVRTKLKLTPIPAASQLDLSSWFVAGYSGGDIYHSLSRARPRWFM

For the molecule `COc1ccc2c(c1)C=C(c1c(C(=O)O)cnn1C)Cn1c-2c(C2CCCCC2)c2ccc(C(=O)NS(=O)(=O)C(C)C)cc21`, the IC50 under setting [1] lay within 0.001 to 0.5 µM. `COc1ccc2c(c1)C=C(c1c(C(=O)N3[C@H]4CC[C@@H]3CC4)cnn1C)Cn1c-2c(C2CCCCC2)c2ccc(C(=O)NS(=O)(=O)C(C)C)cc21` displayed a concentration for half-maximal inhibition (IC50) of 0.001 to 0.5 µM. Take `CCOC(=O)c1cnn(C)c1C1=Cc2cc(OC)ccc2-c2c(C3CCCCC3)c3ccc(C(=O)NS(=O)(=O)CC(C)C)cc3n2C1`: the half-inhibitory concentration (IC50) under setting [1] lay in the range of 0.001 to 0.5 µM. The same measure, in the same setting: under `COc1ccc2c(c1)C=C(c1c(C(=O)N(Cc3ccccc3OC)C(C)C)cnn1C)Cn1c-2c(C2CCCCC2)c2ccc(C(=O)NS(=O)(=O)C(C)C)cc21` stands 0.001 to 0.5 µM; under `CCc1nnc(CN(C(=O)c2cnn(C)c2C2=Cc3cc(OC)ccc3-c3c(C4CCCCC4)c4ccc(C(=O)NS(=O)(=O)C(C)C)cc4n3C2)C(C)C)o1`, 0.001 to 0.5 µM; under `CCOC(=O)c1cnn(C)c1C1=Cc2cc(OC)ccc2-c2c(C3CCCCC3)c3ccc(C(=O)NS(=O)(=O)C4CCC4)cc3n2C1`, 0.001 to 0.5 µM. The same measure, in the same setting: in the case of `COc1ccc2c(c1)C=C(c1c(C(=O)N3C[C@@H](C)O[C@@H](C)C3)cnn1C)Cn1c-2c(C2CCCCC2)c2ccc(C(=O)NS(=O)(=O)C3CCCC3)cc21` it was 0.001 to 0.5 µM; in that of `COc1ccc2c(c1)C=C(c1c(C(=O)N3CCCC(N(C)C)C3)cnn1C)Cn1c-2c(C2CCCCC2)c2ccc(C(=O)NS(=O)(=O)C3CCCC3)cc21` (stereo not drawn), 0.001 to 0.5 µM. Still for that read-out and setting: in the case of `CCN1C[C@@H]2C[C@H]1CN2C(=O)c1cnn(C)c1C1=Cc2cc(OC)ccc2-c2c(C3CCCCC3)c3ccc(C(=O)NS(=O)(=O)C4CCCC4)cc3n2C1` it was 0.001 to 0.5 µM; in that of `COc1ccc2c(c1)C=C(c1c(C(=O)N3CCN4CCCC4C3)cnn1C)Cn1c-2c(C2CCCCC2)c2ccc(C(=O)NS(=O)(=O)C3CCCC3)cc21` (stereo not drawn), 0.001 to 0.5 µM.

Turning to `CCN(C(=O)c1cnn(C)c1C1=Cc2cc(OC)ccc2-c2c(C3CCCCC3)c3ccc(C(=O)NS(=O)(=O)C4CCCC4)cc3n2C1)C(C)C`, the IC50 under setting [1] lay within 0.001 to 0.5 µM. Consider `CCC(C)S(=O)(=O)NC(=O)c1ccc2c(C3CCCCC3)c3n(c2c1)CC(c1c(C(=O)N2C[C@@H]4C[C@H]2CN4CC)cnn1C)=Cc1cc(OC)ccc1-3` (stereo partly drawn), for which the IC50 under setting [1] was 0.001 to 0.5 µM. For `CCC(C)S(=O)(=O)NC(=O)c1ccc2c(C3CCCCC3)c3n(c2c1)CC(c1c(C(=O)N2CCN4CCCC4C2)cnn1C)=Cc1cc(OC)ccc1-3` (stereo not drawn), the concentration for half-maximal inhibition (IC50) under setting [1] was in the range of 0.001 to 0.5 µM. Turning to `CCOC(=O)c1cnn(C)c1C1=Cc2cc(OC)ccc2-c2c(C3CCCCC3)c3ccc(C(=O)NS(=O)(=O)C(C)CC)cc3n2C1` (stereo not drawn), the IC50 under setting [1] fell in the range of 0.001 to 0.5 µM. The same measure, in the same setting: in the case of `COc1ccc2c(c1)C=C(c1c(C(=O)O)cnn1C)Cn1c-2c(C2CCCCC2)c2ccc(C(=O)NS(=O)(=O)C3CCC3)cc21` it was 0.001 to 0.5 µM.

As to `COc1ccc2c(c1)C=C(c1c(C(=O)N3C[C@@H](C)N(C)[C@@H](C)C3)cnn1C)Cn1c-2c(C2CCCCC2)c2ccc(C(=O)NS(=O)(=O)C3CCCC3)cc21`, the 50% inhibitory concentration (IC50) under setting [1] was in the range of 0.001 to 0.5 µM.

On to `COc1ccc2c(c1)C=C(c1c(C(=O)N3CCN4CCCC4C3)cnn1C)Cn1c-2c(C2CCCCC2)c2ccc(C(=O)NS(=O)(=O)CC(C)C)cc21` (stereo not drawn), for which the 50% inhibitory concentration (IC50) under setting [1] was in the range of 0.001 to 0.5 µM. Same read-out and setting: under `COc1ccc2c(c1)C=C(c1c(C(=O)N3C[C@@H](C)N(C)[C@@H](C)C3)cnn1C)Cn1c-2c(C2CCCCC2)c2ccc(C(=O)NS(=O)(=O)CC(C)C)cc21` stands 0.001 to 0.5 µM; under `CCN1CC2CC1CN2C(=O)c1cnn(C)c1C1=Cc2cc(OC)ccc2-c2c(C3CCCCC3)c3ccc(C(=O)NS(=O)(=O)CC(C)C)cc3n2C1` (stereo not drawn), 0.001 to 0.5 µM. On to `COc1ccc2c(c1)C=C(c1c(C(=O)N3CCCC(N(C)C)C3)cnn1C)Cn1c-2c(C2CCCCC2)c2ccc(C(=O)NS(=O)(=O)CC(C)C)cc21` (stereo not drawn), for which, under setting [1], the half-inhibitory concentration (IC50) was in the range of 0.001 to 0.5 µM. Same read-out and setting: in the case of `COc1ccc2c(c1)C=C(c1c(C(=O)N3C[C@@H](C)N(C)[C@@H](C)C3)cnn1C)Cn1c-2c(C2CCCCC2)c2ccc(C(=O)NS(=O)(=O)C3CCC3)cc21` it was 0.001 to 0.5 µM; in that of `COc1ccc2c(c1)C=C(c1c(C(=O)N3C[C@@H](C)O[C@@H](C)C3)cnn1C)Cn1c-2c(C2CCCCC2)c2ccc(C(=O)NS(=O)(=O)C3CCC3)cc21`, 0.001 to 0.5 µM; in that of `COC(=O)c1c(C)nn(C)c1C1=Cc2cc(OC)ccc2-c2c(C3CCCCC3)c3ccc(C(=O)NS(=O)(=O)N(C)C)cc3n2C1`, 0.001 to 0.5 µM. On the same count and under the same terms, under `COC(=O)c1c(C)nn(C)c1C1=Cc2cc(OC)ccc2-c2c(C3CCCCC3)c3ccc(C(=O)NS(=O)(=O)CC(C)C)cc3n2C1` stands 0.001 to 0.5 µM. On to `COc1ccc2c(c1)C=C(c1c(C(=O)N3CC4CCC(C3)O4)c(C)nn1C(C)C)Cn1c-2c(C2CCCCC2)c2ccc(C(=O)NS(=O)(=O)C(C)C)cc21`, for which, under setting [1], the IC50 fell in the range of 0.001 to 0.5 µM.

As to `CCn1nc(C)c(C(=O)N2C[C@@H](C)N(C)[C@@H](C)C2)c1C1=Cc2cc(OC)ccc2-c2c(C3CCCCC3)c3ccc(C(=O)NS(=O)(=O)C(C)C)cc3n2C1`, the 50% inhibitory concentration (IC50) under setting [1] fell in the range of 0.001 to 0.5 µM. Turning to `CCn1ncc(C(=O)N2CC3CCC(C2)O3)c1C1=Cc2cc(OC)ccc2-c2c(C3CCCCC3)c3ccc(C(=O)NS(=O)(=O)C(C)C)cc3n2C1`, the concentration for half-maximal inhibition (IC50) under setting [1] was in the range of 0.001 to 0.5 µM. Same read-out and setting: under `CCn1nc(C)c(C(=O)N2CCO[C@H](COC)C2)c1C1=Cc2cc(OC)ccc2-c2c(C3CCCCC3)c3ccc(C(=O)NS(=O)(=O)C(C)C)cc3n2C1` stands 0.001 to 0.5 µM; under `COc1ccc2c(c1)C=C(c1nn(C(C)C)c(C)c1C(=O)N1C[C@@H](C)O[C@@H](C)C1)Cn1c-2c(C2CCCCC2)c2ccc(C(=O)NS(=O)(=O)C(C)C)cc21` [drawing 617], 0.001 to 0.5 µM. Same read-out and setting: in the case of `COc1ccc2c(c1)C=C(c1nn(C(C)C)c(C)c1C(=O)N1C[C@@H](C)O[C@@H](C)C1)Cn1c-2c(C2CCCCC2)c2ccc(C(=O)NS(=O)(=O)C(C)C)cc21` [drawing 622] it was 0.001 to 0.5 µM.
